According to patent US9557338B2 (SIGNAL PHARMACEUTICALS, LLC, priority 2012, dated 2017):
Where two headings read alike, the source gives them in different places.

Columns and labels:
Type in all cases: cell-based
Phospho-PRAS40(T246) = assay: Luminex multiplex assay, Phospho-PRAS40(T246)
Outline: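 Cells (PC3; HCT-116, MDA-MB-231 and HT29 with 500 ng/mL recombinant human IGF-I for the final 10 min) treated with compound or rapamycin over a concentration range for 1 h at 37° C, 5% CO2. Lysates read by bead-based Luminex sandwich immunoassay, 3 h at room temperature, RPE anti-rabbit detection, quantified against phosphoprotein standard curves.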

Phospho-4E-BP1(T46) = assay: Luminex multiplex assay, Phospho-4E-BP1(T46); conditions: read-out: p-4E-BP1(T46)
From the text: Determination of Phospho-GSK3β(S9), Phospho-PRAS40(T246) and Phospho-4E-BP1(T46) and the Effect of Compound 1 or Rapamycin.
The multiplex Luminex assay format differs from conventional enzyme-linked immunosorbent assay (ELISA) in that the multiplex capture antibody is attached to a polystyrene bead whereas the ELISA capture antibody is attached to the microplate well. The use of the suspension bead-based technology enables the multiplexing capabilities of the Luminex assays. The xMAP® technology uses 5.6 micron polystyrene microspheres, which are internally dyed with red and infrared fluorophores of differing intensities. Each bead is given a unique number, or bead region, allowing differentiation of one bead from another. Beads covalently bound to different specific antibodies can be mixed in the same assay, utilizing a 96-well microplate format. At the completion of the sandwich immunoassay, beads can be read, using the Luminex 100™ or Luminex 200 detection system, in single-file by dual lasers for classification and quantification of each analyte. The Akt-Pathway Phospho 5-plex kit used was custom made and includes the ability to simultaneously measure p-GSK3β (S9), p-PRAS40(T246), and p-4E-BP1(T46).
Cells were plated at the required density. The cells were treated with either Compound 1 or rapamycin over a range of concentrations for 1 hour in 5% CO2 at 37° C. Compound 1 and rapamycin were used at the same concentrations as for the proliferation assay. As for the cell proliferation assay, a reference standard was included in the assay for PC3 cells and the coefficient of variation for assay of p-GSK3β(S9) was 37.8% (n=30), p-PRAS40(T246) was 27.8% (n=30) and for p4E-BP1(T46) was 13.5% (n=4). For three cell lines (HCT-116, MDA-MB-231 and HT29) in the assay for phosphorylation of GSK3β, PRAS40 and 4E-BP1, IGF-I stimulation (500 ng/mL, recombinant human IGF-I) for the last 10 min of incubation was used. The media was aspirated from the wells and the plate was placed on ice. Then 35 μL of Lysis Buffer was added to each well and incubated on ice for at least 30 minutes. During the incubation, the standard curve for each phosphoprotein was prepared. The standards provided were reconstituted and serial dilutions were prepared according to the manufacturer's instructions. At the end of the cell lysis step, […] of the lysate was transferred to a V-bottom plate and spun at 4° C. at 2000 rpm for 5 minutes. Both the 1× Luminex bead and 1× detector antibody solutions were prepared during this time. The 1× bead solution was vortexed and 25 μL was added into each well of a black round bottom plate. Then 50 μL of the 1× detector antibody was added to each well. Fifty microliters (50 μL) of the prepared standards were added to the designated wells. Then 25 μL of the assay diluent was added to each well designated for the compound-treated cell lysates. At the end of the spin, 25 μL of cell lysate was added to the corresponding wells of the black assay plate. The assay plate was covered with the white plate lid and incubated for 3 hours at room temperature on an orbital shaker.
Approximately 10-15 minutes prior to the end of the first incubation, the secondary antibody solution was prepared according to the vendor's protocol. Goat anti-rabbit R-phycoerythrin red fluorescent protein (RPE) supplied as a 10× concentrate was diluted to generate a 1× goat anti-rabbit RPE stock. The 96-well filter plate was pre-wet with 200 μL of 1× Working wash solution. At the end of the 3 hour incubation, a multichannel pipette was used to transfer the entire contents from each assay well into the wells of the filter plate. The liquid from the wells was removed by aspiration with the vacuum manifold. Then 200 μL of 1× Working wash solution was added into each well. The wash solution was aspirated using the vacuum manifold after 15-30 seconds. This wash step was repeated one time. The bottom of the plate was blotted on clean paper towels to remove residual liquid. […]

PC3 = assay: Growth inhibition (cell proliferation assay), PC3; conditions: read-out: Compound 1 Growth Inhibition IC50
S6RP(S235/S236) = assay: Inhibition of S6RP(S235/S236) phosphorylation in cell lines; conditions: read-out: p-S6RP(S235/S236)

## CO[C@H]1CC[C@H](N2C(=O)CNc3ncc(-c4ccc(C(C)(C)O)nc4)nc32)CC1 [Compound 1, 7-(6-(2-hydroxypropan-2-yl)pyridin-3-yl)-1-((1r,4r)-4-methoxycyclohexyl)-3,4-dihydropyrazino-[2,3-b]pyrazin-2(1H)-one]
Phospho-PRAS40(T246); A549, read-out: p-PRAS40 (T246)
  IC50: 750 nM
Phospho-PRAS40(T246); HCT116, IGF-I stimulation, read-out: p-PRAS40 (T246)
  IC50: 430 nM
Phospho-PRAS40(T246); HCT116 cell line, IGF, read-out: Luminex PRAS40 (IGF)
  IC50: 430 nM
Phospho-PRAS40(T246); HT-29, IGF-I stimulation, read-out: p-PRAS40 (T246)
  IC50: 350 nM
Phospho-PRAS40(T246); MDA-MB-231, IGF-I stimulation, read-out: p-PRAS40 (T246)
  IC50: 280 nM
Phospho-PRAS40(T246); NCI-H23, read-out: p-PRAS40 (T246)
  IC50: 190 nM
Phospho-PRAS40(T246); PC3, read-out: p-PRAS40 (T246)
  IC50: 140 nM
Phospho-PRAS40(T246); U87MG cell line, read-out: Luminex PRAS40
  IC50: 362 nM
Phospho-PRAS40(T246); U-87 MG, read-out: p-PRAS40 (T246)
  IC50: 360 nM
Phospho-4E-BP1(T46); A549
  IC50: 330 nM
Phospho-4E-BP1(T46); HCT116, IGF-I stimulation
  IC50: 390 nM
Phospho-4E-BP1(T46); HT-29, IGF-I stimulation
  IC50: 70 nM
Phospho-4E-BP1(T46); MDA-MB-231, IGF-I stimulation
  IC50: 120 nM
Phospho-4E-BP1(T46); NCI-H23
  IC50: 120 nM
Phospho-4E-BP1(T46); PC3
  IC50: 410 nM
Phospho-4E-BP1(T46); U-87 MG
  IC50: 1340 nM
PC3
  IC50: 110 nM
S6RP(S235/S236); A549
  IC50: 40 nM
S6RP(S235/S236); HCT116
  IC50: 80 nM
S6RP(S235/S236); HT-29
  IC50: 10 nM
S6RP(S235/S236); MDA-MB-231
  IC50: 30 nM
S6RP(S235/S236); NCI-H23
  IC50: 70 nM
S6RP(S235/S236); PC3
  IC50: 20 nM
S6RP(S235/S236); U-87 MG
  IC50: 190 nM
